The values that follow come from the Kinase Knowledgebase extract (Sharma et al. 2016).

The target of the test is PIK3CG (human) (UniProt P48736). Briefly: Assessment of PIK3CG Kinase Activity.
Chain of PIK3CG (human) (P48736 whole entry, looked up): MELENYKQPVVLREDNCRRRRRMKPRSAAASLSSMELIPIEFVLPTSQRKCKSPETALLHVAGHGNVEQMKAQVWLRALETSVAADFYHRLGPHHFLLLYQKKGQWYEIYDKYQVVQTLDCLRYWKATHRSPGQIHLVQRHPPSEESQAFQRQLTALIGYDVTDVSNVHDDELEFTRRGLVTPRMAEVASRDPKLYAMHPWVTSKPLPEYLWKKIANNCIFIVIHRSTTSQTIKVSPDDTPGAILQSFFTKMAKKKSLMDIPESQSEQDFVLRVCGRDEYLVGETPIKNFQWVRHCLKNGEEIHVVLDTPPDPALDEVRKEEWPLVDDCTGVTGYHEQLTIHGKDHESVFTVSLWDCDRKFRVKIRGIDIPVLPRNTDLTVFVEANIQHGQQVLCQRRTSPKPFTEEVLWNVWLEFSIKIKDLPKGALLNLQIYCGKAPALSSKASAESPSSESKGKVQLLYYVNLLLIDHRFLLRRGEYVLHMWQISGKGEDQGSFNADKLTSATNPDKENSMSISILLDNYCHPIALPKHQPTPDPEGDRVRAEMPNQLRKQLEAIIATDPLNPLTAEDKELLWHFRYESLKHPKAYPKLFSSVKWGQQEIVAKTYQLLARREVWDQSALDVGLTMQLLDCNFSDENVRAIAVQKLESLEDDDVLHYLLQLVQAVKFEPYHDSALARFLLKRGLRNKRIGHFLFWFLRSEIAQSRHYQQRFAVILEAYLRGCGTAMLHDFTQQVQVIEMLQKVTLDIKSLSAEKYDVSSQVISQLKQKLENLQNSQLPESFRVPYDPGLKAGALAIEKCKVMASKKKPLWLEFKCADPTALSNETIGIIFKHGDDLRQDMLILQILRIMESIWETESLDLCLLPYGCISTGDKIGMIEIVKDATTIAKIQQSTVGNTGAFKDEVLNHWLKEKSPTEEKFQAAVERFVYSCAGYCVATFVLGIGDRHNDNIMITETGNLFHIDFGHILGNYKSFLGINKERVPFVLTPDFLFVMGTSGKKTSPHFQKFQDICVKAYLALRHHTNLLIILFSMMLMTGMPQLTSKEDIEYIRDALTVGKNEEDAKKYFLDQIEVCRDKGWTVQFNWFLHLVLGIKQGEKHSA

Compound `CC(=O)Nc1nc2c(s1)-c1c(c(C(C)C)nn1-c1ccc(C(=O)NCc3ccncc3)cc1Cl)CC2` registered an IC50 of less than 800 nM.

The IC50 is the concentration needed to halve the response being measured. A lower IC50 goes with inhibition by little substance.
